Measurements taken from patent US20260242343A1, “COMPOUND SERVING AS DDR1 KINASE INHIBITOR, AND MEDICINE” (NIPPON SHINYAKU CO., LTD., priority 2022, published 2026).
Where a name gives a salt, the structure may show the parent alone.

Columns and labels:
[1] = target: T1, DDR1 kinase in DDR1-expressing U2OS cells (Homo sapiens, UniProt Q08345); assay: DDR1 kinase inhibitory effect in DDR1-expressing U2OS cells (PathHunter, type I collagen stimulation); assay type: cell-based; settings: type I collagen 50 μg/mL, 10% FBS, read-out: DDR-1 IC50
T1 construct: host or cells: U2OS
Protocol: Test compounds in DMSO were prepared at 10 mM and diluted with DMSO to final concentrations of 1000, 100, 10, 1, and 0.1 μM. These solutions were diluted further with E-MEM medium (Fujifilm Wako Pure Chemical Industries, 051-07615) containing 10% fetal bovine serum (FBS, Gibco, 10270106) to 60,000, 6,000, 600, 60, 6, and 0.6 nM to obtain test sample solutions.
DDR1-expressing U2OS cells (DiscoverX, 93-0894C3) suspended at 2.5×10^5 cells/mL in 10% FBS+E-MEM medium were seeded in 384-well plates (DiscoverX, 92-0013) in 20 μL portions and cultured overnight at 37° C. and 5% CO2.
The next day, the test sample solutions as prepared were added at 5 μL/well to final concentrations of 10,000, 1,000, 100, 10, 1, and 0.1 nM. After incubation at 37° C. and 5% CO2 for 1 hour, type I collagen (Nitta Gelatin, 631-00771) was added at 5 μL/well to a final concentration of 50 μg/mL, and cultured overnight at 37° C. and 5% CO2.
The next day, the plate was left at room temperature for 1 hour, after which 5 μL/well of detection solution was added according to the instruction manual for the PathHunter (registered trademark) Detection Kit (DiscoverX, 93-0001). […] The test was performed in duplicate.

DDR1 protein = target: T2, DDR1 protein (Homo sapiens, UniProt Q08345); assay: Evaluation of DDR1 kinase inhibitory activity (LANCE Ultra TR-FRET); assay type: biochemical; settings: DDR1 protein 0.5 nM, ATP 100 μM, 2 hours at room temperature; read-out: DDR-1 IC50
T2 construct: purchased Carna Biosciences 08-113
Protocol: The test was performed in duplicate.

T2 sequence (Q08345 19-876 isoform Q08345-2 limits assumed): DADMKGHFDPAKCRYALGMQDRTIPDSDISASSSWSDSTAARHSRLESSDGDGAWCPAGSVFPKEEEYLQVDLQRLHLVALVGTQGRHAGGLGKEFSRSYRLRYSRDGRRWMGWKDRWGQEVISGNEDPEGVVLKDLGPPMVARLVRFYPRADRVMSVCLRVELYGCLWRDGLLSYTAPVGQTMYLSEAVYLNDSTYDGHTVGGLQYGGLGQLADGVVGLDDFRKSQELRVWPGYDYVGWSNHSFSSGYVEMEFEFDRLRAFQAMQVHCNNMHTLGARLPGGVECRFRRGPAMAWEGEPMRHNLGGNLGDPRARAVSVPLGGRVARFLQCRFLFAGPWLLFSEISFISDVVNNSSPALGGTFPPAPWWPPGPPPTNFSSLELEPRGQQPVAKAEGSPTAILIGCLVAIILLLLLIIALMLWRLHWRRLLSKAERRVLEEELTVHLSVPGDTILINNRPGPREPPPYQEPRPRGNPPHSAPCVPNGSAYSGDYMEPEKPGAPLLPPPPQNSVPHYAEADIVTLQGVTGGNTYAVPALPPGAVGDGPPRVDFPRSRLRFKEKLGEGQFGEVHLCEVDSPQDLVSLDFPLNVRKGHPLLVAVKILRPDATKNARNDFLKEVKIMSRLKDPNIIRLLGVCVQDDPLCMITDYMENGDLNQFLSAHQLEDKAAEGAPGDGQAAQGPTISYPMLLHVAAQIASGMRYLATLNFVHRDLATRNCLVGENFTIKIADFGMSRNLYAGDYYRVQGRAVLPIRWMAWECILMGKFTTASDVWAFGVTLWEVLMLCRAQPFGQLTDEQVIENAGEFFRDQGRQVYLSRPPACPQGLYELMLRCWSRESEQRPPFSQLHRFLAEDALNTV
T1 sequence (Q08345 19-913): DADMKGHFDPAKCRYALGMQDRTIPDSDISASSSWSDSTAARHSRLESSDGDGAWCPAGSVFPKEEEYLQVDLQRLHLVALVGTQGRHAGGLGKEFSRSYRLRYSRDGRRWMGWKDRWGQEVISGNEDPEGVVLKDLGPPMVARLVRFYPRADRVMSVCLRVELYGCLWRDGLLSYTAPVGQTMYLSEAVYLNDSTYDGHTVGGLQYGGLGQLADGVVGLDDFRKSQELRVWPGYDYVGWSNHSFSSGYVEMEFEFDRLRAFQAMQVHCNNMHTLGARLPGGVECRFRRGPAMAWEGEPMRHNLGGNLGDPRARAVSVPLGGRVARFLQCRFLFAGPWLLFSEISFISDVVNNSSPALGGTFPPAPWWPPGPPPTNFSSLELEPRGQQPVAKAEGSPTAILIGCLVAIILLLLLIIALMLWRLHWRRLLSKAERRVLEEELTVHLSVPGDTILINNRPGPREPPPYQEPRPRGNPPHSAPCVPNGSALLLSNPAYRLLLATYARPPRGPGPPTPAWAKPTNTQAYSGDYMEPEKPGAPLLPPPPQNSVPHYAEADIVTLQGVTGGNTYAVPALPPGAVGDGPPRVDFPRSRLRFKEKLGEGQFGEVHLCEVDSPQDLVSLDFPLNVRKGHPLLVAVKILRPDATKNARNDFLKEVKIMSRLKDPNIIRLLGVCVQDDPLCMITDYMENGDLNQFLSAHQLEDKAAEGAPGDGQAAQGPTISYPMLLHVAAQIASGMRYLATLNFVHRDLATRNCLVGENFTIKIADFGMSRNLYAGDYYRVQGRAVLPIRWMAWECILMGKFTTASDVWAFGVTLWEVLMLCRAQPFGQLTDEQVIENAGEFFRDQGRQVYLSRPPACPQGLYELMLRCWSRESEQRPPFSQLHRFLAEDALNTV

## CCc1ccc(C(=O)N[C@H](CO)CCOC(F)(F)F)cc1NC(=O)c1cncc(-c2cccc(F)c2)c1 [Example 32, N-(2-Ethyl-5-{[(2S)-1-hydroxy-4-(trifluoromethoxy)butan-2-yl]carbamoyl}phenyl)-5-(3-fluorophenyl)pyridine-3-carboxamide]
[1]
  IC50: 54 nM
DDR1 protein
  IC50: 26 nM

## CCc1ccc(C(=O)N[C@H]2C[C@H](OC(F)(F)F)C[C@@H]2O)cc1NC(=O)c1cncc(-c2cccc(F)c2)c1 [Example 33, N-(2-Ethyl-5-{[(1S,2S,4S)-2-hydroxy-4-(trifluoromethoxy)cyclopentyl]carbamoyl}phenyl)-5-(3-fluorophenyl)pyridine-3-carboxamide]
[1]
  IC50: 7.4 nM
DDR1 protein
  IC50: 1.8 nM

## Nc1ncc(/C(F)=C/c2cc(C(=O)N[C@H](CO)c3cccc(F)c3)ccc2OC(F)F)cn1 [Example 34, 3-[(1Z)-2-(2-Aminopyrimidin-5-yl)-2-fluoroethenyl]-4-(difluoromethoxy)-N-[(1S)-1-(3-fluorophenyl)-2-hydroxyethyl]benzamide]
[1]
  IC50: 44 nM
DDR1 protein
  IC50: 8.2 nM

## Nc1ncc(C#Cc2cc(C(=O)N[C@H](CO)Cc3ccc(Cl)cc3)ccc2OC(F)F)cn1 [Example 35, 3-[2-(2-Aminopyrimidin-5-yl)ethynyl]-N-[(2S)-1-(4-chlorophenyl)-3-hydroxypropan-2-yl]-4-(difluoromethoxy)benzamide hydrochloride]
[1]
  IC50: 12 nM
DDR1 protein
  IC50: 3.3 nM

## Nc1ncc(C#Cc2cc(C(=O)N[C@H](CO)c3ccccc3)ccc2OC(F)F)cn1 [Example 36, 3-[2-(2-Aminopyrimidin-5-yl)ethynyl]-4-(difluoromethoxy)-N-[(1S)-2-hydroxy-1-phenylethyl]benzamide hydrochloride]
[1]
  IC50: 230 nM
DDR1 protein
  IC50: 8.6 nM

## Nc1ncc(/C(F)=C/c2cc(C(=O)N[C@H]3CC(F)(F)CC[C@@H]3O)ccc2OC(F)F)cn1 [Example 37, 3-[(1Z)-2-(2-Aminopyrimidin-5-yl)-2-fluoroethenyl]-N-[(1S,2S)-5,5-difluoro-2-hydroxycyclohexyl]-4-(difluoromethoxy)benzamide]
[1]
  IC50: 40 nM
DDR1 protein
  IC50: 15 nM

## Nc1ncc(/C(F)=C/c2cc(C(=O)N[C@H]3CCCC[C@@H]3O)ccc2OC(F)F)cn1 [Example 38, 3-[(1Z)-2-(2-Aminopyrimidin-5-yl)-2-fluoroethenyl]-4-(difluoromethoxy)-N-[(1S,2S)-2-hydroxycyclohexyl]benzamide]
[1]
  IC50: 99 nM
DDR1 protein
  IC50: 12 nM

## Nc1ncc(/C=C(\F)c2cc(C(=O)N[C@H]3C[C@H](OC(F)(F)F)C[C@@H]3O)ccc2OC(F)F)cn1 [Example 39, 3-[(1Z)-2-(2-Aminopyrimidin-5-yl)-1-fluoroethenyl]-4-(difluoromethoxy)-N-[(1S,2S,4S)-2-hydroxy-4-(trifluoromethoxy)cyclopentyl]benzamide]
[1]
  IC50: 3.9 nM
DDR1 protein
  IC50: 0.39 nM

## Nc1ncc(/C=C(\F)c2cc(C(=O)N[C@H]3CC4(CC4)C[C@@H]3O)ccc2OC(F)F)cn1 [Example 40, 3-[(1Z)-2-(2-Aminopyrimidin-5-yl)-1-fluoroethenyl]-4-(difluoromethoxy)-N-[(5S,6S)-6-hydroxyspiro[2.4]heptan-5-yl]benzamide]
[1]
  IC50: 5.6 nM
DDR1 protein
  IC50: 0.48 nM

## NC(=O)c1ncc2cc(-c3cc(C(=O)N[C@H]4CC(F)(F)CC[C@@H]4O)cnc3C(F)(F)F)ccn12 [Example 41, 5-{3-Carbamoylimidazo[1,5-a]pyridin-7-yl}-N-[(1S,2S)-5,5-difluoro-2-hydroxycyclohexyl]-6-(trifluoromethyl)pyridine-3-carboxamide]
[1]
  IC50: 350 nM
DDR1 protein
  IC50: 60 nM

## CCc1ccc(C(=O)N[C@H]2C[C@H](OC(F)(F)F)C[C@@H]2O)cc1NC(=O)c1cncc(OCC2CC2)c1 [Example 42, 5-(Cyclopropylmethoxy)-N-(2-ethyl-5-{[(1S,2S,4S)-2-hydroxy-4-(trifluoromethoxy)cyclopentyl]carbamoyl}phenyl)pyridine-3-carboxamide]
[1]
  IC50: 54 nM
DDR1 protein
  IC50: 1.6 nM
